# Experimental data as given in patent publication US20250074916A1, “BRM TARGETING COMPOUNDS AND ASSOCIATED METHODS OF USE” (Prelude Therapeutics Incorporated, priority 2023, published 2025).
# Experiments:
# SMARCA2 = molecular target: T1, SMARCA2 (Homo sapiens, UniProt P51531); assay: SMARCA2 HiBiT degradation assay in HeLa cells; format: cell-based; conditions: 18 hours incubation
# T1 construct: SMARCA2-HiBiT knock-in Hela monoclonal cell (CS302366); host or cells: HeLa SMARCA2-HiBiT knock-in monoclonal cells (heterozygous knock-in)
# T1 sequence (P51531 whole entry): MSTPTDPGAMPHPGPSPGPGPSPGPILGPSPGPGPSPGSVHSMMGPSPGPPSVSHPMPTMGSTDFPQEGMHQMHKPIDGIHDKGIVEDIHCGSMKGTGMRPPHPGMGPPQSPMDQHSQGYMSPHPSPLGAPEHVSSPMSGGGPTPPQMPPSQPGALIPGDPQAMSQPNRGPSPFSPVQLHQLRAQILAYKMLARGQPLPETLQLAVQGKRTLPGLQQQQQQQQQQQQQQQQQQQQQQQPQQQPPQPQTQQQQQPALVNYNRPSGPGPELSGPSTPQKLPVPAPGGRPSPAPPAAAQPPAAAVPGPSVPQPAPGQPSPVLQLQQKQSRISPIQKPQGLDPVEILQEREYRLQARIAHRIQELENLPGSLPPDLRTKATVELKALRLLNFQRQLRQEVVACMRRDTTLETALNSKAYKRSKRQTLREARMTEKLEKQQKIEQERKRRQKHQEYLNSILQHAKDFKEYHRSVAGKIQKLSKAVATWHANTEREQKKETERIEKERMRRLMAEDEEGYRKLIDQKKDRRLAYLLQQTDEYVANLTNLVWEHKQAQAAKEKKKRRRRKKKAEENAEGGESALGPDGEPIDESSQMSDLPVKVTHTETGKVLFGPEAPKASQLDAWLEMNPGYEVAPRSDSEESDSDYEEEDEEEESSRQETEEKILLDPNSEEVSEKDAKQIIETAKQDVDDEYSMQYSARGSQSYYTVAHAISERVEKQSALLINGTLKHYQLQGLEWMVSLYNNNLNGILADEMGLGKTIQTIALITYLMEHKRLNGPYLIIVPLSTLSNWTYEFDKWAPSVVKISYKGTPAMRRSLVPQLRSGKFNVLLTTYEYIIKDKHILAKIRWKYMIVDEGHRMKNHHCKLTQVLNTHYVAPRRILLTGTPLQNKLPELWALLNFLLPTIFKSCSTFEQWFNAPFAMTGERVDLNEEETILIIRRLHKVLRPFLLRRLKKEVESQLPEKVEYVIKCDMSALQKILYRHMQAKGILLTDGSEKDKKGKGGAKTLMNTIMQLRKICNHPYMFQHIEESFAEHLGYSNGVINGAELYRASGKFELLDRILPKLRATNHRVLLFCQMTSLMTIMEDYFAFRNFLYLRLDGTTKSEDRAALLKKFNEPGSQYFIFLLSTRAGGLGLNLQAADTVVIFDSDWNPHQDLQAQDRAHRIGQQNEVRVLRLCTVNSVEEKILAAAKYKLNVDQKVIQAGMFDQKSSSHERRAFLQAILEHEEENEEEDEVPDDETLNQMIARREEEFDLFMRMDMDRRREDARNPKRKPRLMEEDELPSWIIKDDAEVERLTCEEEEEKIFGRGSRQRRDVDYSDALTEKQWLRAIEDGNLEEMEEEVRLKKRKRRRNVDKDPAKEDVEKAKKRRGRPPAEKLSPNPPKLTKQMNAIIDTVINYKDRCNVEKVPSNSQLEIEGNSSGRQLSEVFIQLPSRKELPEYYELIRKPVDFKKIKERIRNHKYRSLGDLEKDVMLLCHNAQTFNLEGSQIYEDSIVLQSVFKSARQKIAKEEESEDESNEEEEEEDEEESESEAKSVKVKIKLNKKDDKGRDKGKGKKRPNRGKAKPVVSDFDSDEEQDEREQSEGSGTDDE
# Method: (§1) Example A. SMARCA2 HiBiT and SMARCA4 HiBiT Degradation Assay
# (§2) Preparation of SMARCA2/4-HiBiT Knock-In Cells
# (§3) HiBiT peptide knock-in of SMARCA2 in LgBiT expressing HEK293T cells was performed by CRISPR-mediated tagging system as described Promega. The homozygous HiBiT knock-in on c-terminus SMARCA2 was confirmed by sanger sequence. SMARCA2-HiBiT knock-in Hela monoclonal cell (CS302366) and SMARCA4-HiBiT knock-in Hela monoclonal cell (CS3023226) were purchased from Promega. The heterozygous HiBiT-knock-in was confirmed by sanger sequence in both SMARCA2-HiBiT and SMARCA4-HiBiT monoclonal cells.
# (§4) SMARCA2 HiBiT and SMARCA4 HiBiT Degradation Assay in HeLa Cells
# (§5) Compounds were dissolved in DMSO to make 10 mM stock and 3-fold series dilutions were further conducted keeping the highest concentration 10 μM. NCIH1693 and NCIH520 cells were maintained in PRMI 1640 medium (Corning Cellgro, Catalog #:10-040-CV) supplemented with 10% v/v FBS (GE Healthcare, Catalog #: SH30910.03) by splitting 1:3 twice a week.
# (§6) Dispense 10 ul aliquot of prepared Hela-SMARCA2-HiBiT or Hela-SMARCA4-HiBiT cells (1:1 ratio of cells:Trypan Blue (#1450013, Bio-Rad)) onto cell counting slide (#145-0011, Bio-Rad) and obtain cell density and cell viability using cell counter (TC20, Bio-Rad). Remove appropriate volume of resuspended cells from culture flask to accommodate 2500 cells/well @[…]. Transfer Hela-HiBiT cells to 50 mL conical (#430290, Corning). Spin down at 1000 rpm for 5 min using tabletop centrifuge (SPINCHRON 15, Beckman). Discard supernatant and resuspend cell pellet in modified EMEM (#30-2003, ATCC) cell culture media containing 10% FBS (F2422-500 ML, Sigma), and 1× Penicillin/Streptomycin (200 g/L) (30-002-CI, Corning) to a cell density of 125,000 cells/mL. Dispense […] of resuspended Hela-HiBit cells per well in 384-well TC treated plate (#12-565-343, Thermo Scientific) using standard cassette (#50950372, Thermo Scientific) on Multidrop Combi (#5840310, Thermo Scientific) inside laminar flow cabinet. Dispense test compounds onto plates using digital liquid dispenser (D300E, Tecan). Incubate plates in humidified tissue culture incubator @37° C. for 18 hours. Add […] of prepared Nano-Glo® HiBiT Lytic detection buffer (N3050, Promega) to each well of 384-well plate using small tube cassette (#24073295, Thermo Scientific) on Multidrop Combi, incubate @RT for 30-60 min. Read plates on microplate reader (Envision 2105, PerkinElmer) using 384 well Ultra-Sensitive luminescence mode. Raw data files and compound information reports are swept into centralized data lake and deconvoluted using automated scripts designed by TetraScience, Inc. Data analysis, curve-fitting and reporting done in Dotmatics Informatics Suite using Screening Ultra module.
# (§7) In Table 5, A=DC50<0.1 μM; B=0.1 μM≤DC50<1 μM and C=DC50>1 μM. In Table 5, A=Dmax>75% and B=50%<Dmax≤75% and C=Dmax<50%.
# SMARCA4 = molecular target: T2, SMARCA4 (Homo sapiens, UniProt P51532); assay: SMARCA4 HiBiT degradation assay in HeLa cells; format: cell-based; conditions: 18 hours incubation
# T2 construct: SMARCA4-HiBiT knock-in Hela monoclonal cell (CS3023226) were purchased from Promega; host or cells: HeLa SMARCA4-HiBiT knock-in monoclonal cells (heterozygous knock-in)
# T2 sequence (P51532 whole entry): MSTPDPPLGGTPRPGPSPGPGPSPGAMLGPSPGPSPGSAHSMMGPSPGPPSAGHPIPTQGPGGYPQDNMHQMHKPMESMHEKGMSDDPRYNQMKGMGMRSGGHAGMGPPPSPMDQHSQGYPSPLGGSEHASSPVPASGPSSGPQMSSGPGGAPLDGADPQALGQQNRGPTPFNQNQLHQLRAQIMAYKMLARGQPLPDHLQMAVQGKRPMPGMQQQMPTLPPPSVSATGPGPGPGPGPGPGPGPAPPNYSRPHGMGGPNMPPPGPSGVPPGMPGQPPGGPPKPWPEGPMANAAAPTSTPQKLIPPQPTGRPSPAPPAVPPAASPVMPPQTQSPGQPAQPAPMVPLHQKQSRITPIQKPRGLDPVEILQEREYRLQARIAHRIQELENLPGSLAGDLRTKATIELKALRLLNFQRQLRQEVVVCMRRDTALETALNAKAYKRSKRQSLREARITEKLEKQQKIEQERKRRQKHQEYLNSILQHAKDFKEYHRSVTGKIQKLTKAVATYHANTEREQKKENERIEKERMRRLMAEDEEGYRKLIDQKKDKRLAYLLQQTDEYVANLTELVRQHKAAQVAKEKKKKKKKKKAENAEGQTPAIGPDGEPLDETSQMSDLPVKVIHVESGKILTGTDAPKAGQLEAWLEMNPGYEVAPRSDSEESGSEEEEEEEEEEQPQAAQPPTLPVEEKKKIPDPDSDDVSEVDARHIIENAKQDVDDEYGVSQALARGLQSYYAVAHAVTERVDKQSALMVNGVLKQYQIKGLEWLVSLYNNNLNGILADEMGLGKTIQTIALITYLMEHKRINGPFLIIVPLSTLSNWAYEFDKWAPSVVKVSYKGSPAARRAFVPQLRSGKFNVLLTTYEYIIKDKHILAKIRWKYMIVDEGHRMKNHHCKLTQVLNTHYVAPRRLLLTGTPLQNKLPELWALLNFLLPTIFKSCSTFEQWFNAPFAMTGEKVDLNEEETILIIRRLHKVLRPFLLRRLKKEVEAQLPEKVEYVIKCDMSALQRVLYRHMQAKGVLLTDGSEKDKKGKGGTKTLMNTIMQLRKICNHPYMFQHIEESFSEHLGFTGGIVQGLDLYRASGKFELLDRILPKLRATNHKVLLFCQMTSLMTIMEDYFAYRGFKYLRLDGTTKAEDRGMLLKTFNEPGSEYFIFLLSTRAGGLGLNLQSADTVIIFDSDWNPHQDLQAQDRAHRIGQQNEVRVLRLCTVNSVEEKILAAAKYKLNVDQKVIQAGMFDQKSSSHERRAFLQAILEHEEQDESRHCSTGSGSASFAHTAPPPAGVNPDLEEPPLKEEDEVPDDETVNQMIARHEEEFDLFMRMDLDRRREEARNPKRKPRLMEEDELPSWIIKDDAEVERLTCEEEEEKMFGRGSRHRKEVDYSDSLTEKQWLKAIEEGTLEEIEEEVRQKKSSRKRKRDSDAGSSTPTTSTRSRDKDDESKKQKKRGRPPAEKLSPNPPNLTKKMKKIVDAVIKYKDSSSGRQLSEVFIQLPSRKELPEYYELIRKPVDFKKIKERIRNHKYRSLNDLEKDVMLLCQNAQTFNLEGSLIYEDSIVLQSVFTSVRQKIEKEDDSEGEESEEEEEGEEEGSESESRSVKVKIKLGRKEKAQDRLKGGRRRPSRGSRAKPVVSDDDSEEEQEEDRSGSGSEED
# Method: as §1, §2, §3, §4, §5, §6, §7
DC50 (SMARCA2),Dmax (SMARCA2),DC50 (SMARCA4),Dmax (SMARCA4),SMILES
< 100 nM,> 75%,< 100 nM,> 75%,"CC1(C)CN(CC2CCN(c3ccc4c(c3)C(=O)N([C@H]3CCC(=O)NC3=O)C4)CC2)CCN1C(=O)N1CCc2[nH]c3nnc(-c4ccccc4O)cc3c2CC1 [Example 1, (S)-3-(6-(4-((4-(3-(2-Hydroxyphenyl)-5,6,7,8,9,10-hexahydropyridazino [4′,3′:4,5]pyrrolo[2,3-d]azepine-7-carbonyl)-3,3-dimethylpiperazin-1-yl)methyl)piperidin-1-yl)-1-oxoisoindolin-2-yl)piperidine-2,6-dione]"
< 100 nM,50 to 75%,> 1000 nM,< 50%,"CC1(C)CN(CC2CCN(c3ccc4c(c3)C(=O)N([C@H]3CCC(=O)NC3=O)C4)CC2)CCN1C(=O)N1CCc2[nH]c3nnc(-c4cccc(F)c4O)cc3c2CC1 [Example 4, (S)-3-(6-(4-((4-(3-(3-Fluoro-2-hydroxyphenyl)-5,6,7,8,9,10-hexahydro-pyridazino[4′,3′:4,5]pyrrolo[2,3-d]azepine-7-carbonyl)-3,3-dimethylpiperazin-1-yl)methyl)piperidin-1-yl)-1-oxoisoindolin-2-yl)piperidine-2,6-dione]"
100 to 1000 nM,< 50%,100 to 1000 nM,< 50%,"CC1(C)CN(CC2CCN(c3ccc4c(c3)C(=O)N([C@H]3CCC(=O)NC3=O)C4)CC2)CCN1C(=O)N1CC2CCC1Cc1c2[nH]c2nnc(-c3cccc(F)c3O)cc12 (stereo partly drawn) [Example 7, (3S)-3-(6-(4-((4-(3-(3-fluoro-2-hydroxyphenyl)-5,6,7,8,9,10-hexahydro-6,9-(epiminomethano)cyclohepta[4,5]pyrrolo[2,3-c]pyridazine-12-carbonyl)-3,3-dimethylpiperazin-1-yl)methyl)piperidin-1-yl)-1-oxoisoindolin-2-yl)piperidine-2,6-dione]"
< 100 nM,> 75%,< 100 nM,> 75%,"C[C@@H]1CN(CC2CCN(c3ccc4c(c3)C(=O)N([C@H]3CCC(=O)NC3=O)C4)CC2)C[C@H](C)N1C(=O)N1CCc2[nH]c3nnc(-c4ccccc4O)cc3c2CC1 [Example 2, (S)-3-(6-(4-(((3R,5S)-4-(3-(2-hydroxyphenyl)-5,6,7,8,9,10-hexahydropyridazino[4′,3′:4,5]pyrrolo[2,3-d]azepine-7-carbonyl)-3,5-dimethylpiperazin-1-yl)methyl)piperidin-1-yl)-1-oxoisoindolin-2-yl)piperidine-2,6-dione]"
< 100 nM,> 75%,< 100 nM,> 75%,"O=C1CC[C@H](N2Cc3ccc(N4CCC(CN5CCN(C(=O)N6CCc7[nH]c8nnc(-c9ccccc9O)cc8c7CC6)CC5)CC4)cc3C2=O)C(=O)N1 [Example 3, (S)-3-(6-(4-((4-(3-(2-hydroxyphenyl)-5,6,7,8,9,10-hexahydropyridazino[4′,3′:4,5]pyrrolo[2,3-d]azepine-7-carbonyl)piperazin-1-yl)methyl)piperidin-1-yl)-1-oxoisoindolin-2-yl)piperidine-2,6-dione]"
100 to 1000 nM,50 to 75%,> 1000 nM,< 50%,"CCC1CN(C(=O)N2CCN(CC3CCN(c4ccc5c(c4)C(=O)N([C@H]4CCC(=O)NC4=O)C5)CC3)CC2(C)C)CCc2c1[nH]c1nnc(-c3cccc(F)c3O)cc21 (stereo partly drawn) [Example 5, (3S)-3-(6-(4-((4-(9-ethyl-3-(3-fluoro-2-hydroxyphenyl)-5,6,7,8,9,10-hexahydropyridazino[4′,3′:4,5]pyrrolo[2,3-d]azepine-7-carbonyl)-3,3-dimethylpiperazin-1-yl)methyl)piperidin-1-yl)-1-oxoisoindolin-2-yl)piperidine-2,6-dione]"

SMILES,DC50 (SMARCA2),Dmax (SMARCA2),DC50 (SMARCA4),Dmax (SMARCA4)
"CC1(C)CN(CC2CCN(c3ccc4c(c3)C(=O)N([C@H]3CCC(=O)NC3=O)C4)CC2)CCN1C(=O)N1C2CCC1Cc1c([nH]c3nnc(-c4cccc(F)c4O)cc13)C2 (stereo partly drawn) [Example 6, (3S)-3-(6-(4-((4-(3-(3-fluoro-2-hydroxyphenyl)-6,7,8,9,10,11-hexahydro-5H-6,9-epiminocycloocta[4,5]pyrrolo[2,3-c]pyridazine-12-carbonyl)-3,3-dimethylpiperazin-1-yl)methyl)piperidin-1-yl)-1-oxoisoindolin-2-yl)piperidine-2,6-dione]",< 100 nM,> 75%,100 to 1000 nM,50 to 75%
